{"source": "patent US20230218563A1", "about": "“METHODS FOR TREATING OR PREVENTING CHRONIC KIDNEY DISEASE” (Arthrosi Therapeutics, Inc., priority 2020, published 2023)", "key": {"[1]": {"assay": "Solubility of test articles in HBSS assay buffer", "conditions": "all tested concentrations, highest 10 μM", "method": "Before the experiment, the medium was removed and the cells were washed twice with 100 μL of HBSS without Cl^−. Uptake experiments were carried out at 37±1° C. in 50 μL of HBSS without Cl^−, pH 7.4 containing the probe substrate (20 μM uric acid) and the test article (TA) or solvent."}, "[2]": {"system": "urine albumin-to-creatinine ratio (UACR)", "assay": "Phase 2a study, UACR in a subject with albuminuria", "assay_type": "in vivo, human", "conditions": "one subject with albuminuria, baseline 96 mg/g; sequential 7-day periods: Compound 1 50 mg (Day 7), Compound 1 50 mg/allopurinol 300 mg (Day 14), allopurinol 300 mg (Day 21)", "from_the_text": "Urine samples were collected for assessment of uric acid excretion. Laboratory safety tests, vital signs, and electrocardiograms were collected throughout the study."}, "[3]": {"assay": "4-week toxicity study in cynomolgus monkeys", "assay_type": "in vivo", "from_the_text": "On Day 29, surviving TS animals (all animals in study) were euthanized and subjected to a full gross necropsy, which included a macroscopic examination of the external surface of the body, all orifices, cranial cavity, external surface of the brain, the thoracic, abdominal and pelvic cavities and their viscera, cervical areas, carcass and genitalia. Organs were weighed as soon as possible from all main study animals at the scheduled necropsies. Tissues from animals at the terminal sacrifice, from animals found dead or moribund-sacrificed, and gross lesions from all animals, were embedded in paraffin, sectioned, stained with hematoxylin and eosin and examined microscopically by a board certified veterinary pathologist."}, "[4]": {"assay": "Phase 1 multiple ascending dose study, plasma pharmacokinetics in healthy adult males", "assay_type": "in vivo", "conditions": "male, human, oral, fasted", "from_the_text": "An additional 6 subjects received placebo.\nAccumulation were approximately 1.3 to 1.4 fold for C. and 1.4 to 1.5 fold for AUC0.24 (Table 12 and FIG. 8)."}, "serum uric acid (sUA)": {"system": "serum uric acid (sUA)", "assay": "Phase 2a cross-over study in adults with gout, serum uric acid", "assay_type": "in vivo, human"}, "[5]": {"conditions": "cynomolgus monkeys, oral 10, 30 and 150 mg/kg/day, 28 days"}, "[6]": {"conditions": "gout patients (sUA>7 mg/dL), once daily, Compound 1 50 mg, febuxostat 40 mg, allopurinol 300 mg, alone or combined"}}, "note": "Where two headings read alike, the source gives them in different places.", "data": [{"compound": "[2H]c1c([2H])c([2H])c2c(C(=O)c3cc(Br)c(O)c(Br)c3)c(C(C)O)oc2c1[2H]", "note": "(racemic) [Compound 1, (3,5-dibromo-4-hydroxyphenyl)(2-(1-hydroxyethyl)benzofuran-3-yl-4,5,6,7-d4)methanone]", "values": [{"measurement": "solubility in HBSS buffer", "setting": "[1]", "result": "soluble"}, {"measurement": "UACR", "setting": "[2]", "result": 41, "unit": "mg/g"}, {"measurement": "UACR % change from baseline", "setting": "[2]", "result": "−57.4", "unit": "%"}, {"measurement": "NOAEL, human equivalent", "setting": "[3]; cynomolgus monkey, in vivo", "result": 600, "unit": "mg"}, {"measurement": "NOAEL at 28 days", "setting": "[3]; cynomolgus monkey, in vivo, po", "result": 30, "unit": "mg/kg"}, {"measurement": "findings after 4 week recovery period", "setting": "[3]; cynomolgus monkeys, 28 days oral then 4 week recovery", "result": "No finding"}, {"measurement": "liver weight", "setting": "[3]; cynomolgus monkeys, male, 150 mg/kg/day, 28 days", "result": "trended higher in male at 150 mg/kg/day, but no statistical difference"}, {"measurement": "clinical signs", "setting": "[3]; [5]", "result": "No abnormal clinical signs"}, {"measurement": "effect on food consumption, body weight", "setting": "[3]; [5]", "result": "no effect"}, {"measurement": "mortality", "setting": "[3]; [5]", "result": "No mortality"}, {"measurement": "Cmax", "setting": "[4]; 25 mg, 25 mg once daily, Day 1", "result": 1760, "unit": "ng/mL"}, {"measurement": "AUC(0-t)", "setting": "[4]; 25 mg, 25 mg once daily, Day 1, read-out: AUC0-24", "result": 21200, "unit": "ng·h/mL"}, {"measurement": "Tmax", "setting": "[4]; 25 mg, 25 mg once daily, Day 1, read-out: Tmax (median)", "result": 3.5, "unit": "h"}, {"measurement": "Cmax", "setting": "[4]; 25 mg, 25 mg once daily, Day 10", "result": 2480, "unit": "ng/mL"}, {"measurement": "AUC(0-t)", "setting": "[4]; 25 mg, 25 mg once daily, Day 10, read-out: AUC0-24", "result": 30800, "unit": "ng·h/mL"}, {"measurement": "Tmax", "setting": "[4]; 25 mg, 25 mg once daily, Day 10, read-out: Tmax (median)", "result": 2.25, "unit": "h"}, {"measurement": "Cmax", "setting": "[4]; 50 mg, 50 mg once daily, Day 1", "result": 3550, "unit": "ng/mL"}, {"measurement": "AUC(0-t)", "setting": "[4]; 50 mg, 50 mg once daily, Day 1, read-out: AUC0-24", "result": 39600, "unit": "ng·h/mL"}, {"measurement": "Tmax", "setting": "[4]; 50 mg, 50 mg once daily, Day 1, read-out: Tmax (median)", "result": 2, "unit": "h"}, {"measurement": "Cmax", "setting": "[4]; 50 mg, 50 mg once daily, Day 10", "result": 4590, "unit": "ng/mL"}, {"measurement": "AUC(0-t)", "setting": "[4]; 50 mg, 50 mg once daily, Day 10, read-out: AUC0-24", "result": 58200, "unit": "ng·h/mL"}, {"measurement": "Tmax", "setting": "[4]; 50 mg, 50 mg once daily, Day 10, read-out: Tmax (median)", "result": 2.5, "unit": "h"}, {"measurement": "Cmax", "setting": "[4]; 75 mg, 75 mg once daily, Day 1", "result": 5200, "unit": "ng/mL"}, {"measurement": "AUC(0-t)", "setting": "[4]; 75 mg, 75 mg once daily, Day 1, read-out: AUC0-24", "result": 55600, "unit": "ng·h/mL"}, {"measurement": "Tmax", "setting": "[4]; 75 mg, 75 mg once daily, Day 1, read-out: Tmax (median)", "result": 1.75, "unit": "h"}, {"measurement": "Cmax", "setting": "[4]; 75 mg, 75 mg once daily, Day 10", "result": 6770, "unit": "ng/mL"}, {"measurement": "AUC(0-t)", "setting": "[4]; 75 mg, 75 mg once daily, Day 10, read-out: AUC0-24", "result": 84700, "unit": "ng·h/mL"}, {"measurement": "Tmax", "setting": "[4]; 75 mg, 75 mg once daily, Day 10, read-out: Tmax (median)", "result": 1.5, "unit": "h"}, {"measurement": "patients with sUA levels below 5 mg/dL", "setting": "serum uric acid (sUA); [6]", "result": 93, "unit": "%"}, {"measurement": "patients with sUA levels below 6 mg/dL", "setting": "serum uric acid (sUA); [6]", "result": 96, "unit": "%"}, {"measurement": "sUA level at 24 hr post-dose in all patients", "setting": "serum uric acid (sUA); gout patients, 7 days dosing, 50 mg", "result": "below 6 mg/dL"}, {"measurement": "sUA after treatment in mildly renal impaired patients", "setting": "serum uric acid (sUA); gout patients, Compound 1 50 mg once daily, from 8.6±1.1 mg/dL", "result": "4.5 ± 0.8", "unit": "mg/dL"}, {"measurement": "mean sUA level reached at maximum", "setting": "serum uric acid (sUA); gout patients, mean baseline 8.9 mg/dL, once daily, Compound 1 50 mg, febuxostat 40 mg, allopurinol 300 mg, alone (Day 7/Day 21) or combined", "result": 4.2, "unit": "mg/dL"}, {"measurement": "reduction of mean sUA from baseline", "setting": "serum uric acid (sUA); gout patients, once daily, Compound 1 50 mg, febuxostat 40 mg, allopurinol 300 mg, alone (Day 7/Day 21) or combined", "result": 53, "unit": "%"}, {"measurement": "sUA % change from baseline", "setting": "serum uric acid (sUA); one subject with albuminuria, sequential 7-day periods: Compound 1 50 mg (Day 7), Compound 1 50 mg/allopurinol 300 mg (Day 14), allopurinol 300 mg (Day 21)", "result": "−50.9", "unit": "%"}]}]}
